These results are taken from patent US11952457B2, “Bioabsorbable resin for additive manufacturing with non-cytotoxic photoinitiator” (Carbon, Inc., priority 2021, dated 2024).

Data set [1] in a line: solubility of dye in resin formulation. The format is physicochemical. Conditions: final resin formulation (oligomer, PC, DDFD). Here is the method: The C&D Green Dye #6 is added to the resin to increase the absorbance of the resin for higher resolution printing. […] To mix C&D Green Dye #6 into the resin, the dye is first solubilized in PC at 0.06 wt % at 80° C. The stock solution of 0.06 wt % dye in PC is added to the oligomer to achieve the desired 0.03% concentration in the final resin.
Crystals of the C&D Green Dye #6 may be observed in this resin. C&D Green Dye #6 tends to crystalize in the resin. To prevent crystal aggregation, this resin should be mixed fresh prior to printing.

For data set [2] the following is noted: versus BAPO; cited from earlier work.

For the molecule `Cc1ccc(Nc2ccc(Nc3ccc(C)cc3)c3c2C(=O)c2ccccc2C3=O)cc1` [C&D Green Dye #6, 1,4-bis(p-tolylamino)anthraquinone], in data set [1], the “solubility in the final formulation” value is “limited solubility”.

As for `CC1(C)COC(=O)C1=O` [DDFD, dihydro-4,4-dimethyl-2,3-furandione], in data set [2], the “cytotoxicity relative to traditional UV photoinitiators such as BAPO” value was “orders of magnitude less cytotoxic”.
